From PubChem BioAssay AID330 (DTP/NCI, 2004) come the findings set out here.

Several values for one entry are separate records, joined by “and”; a condition that tells them apart may be missing. Identical values can stand only once. Toxic doses and inconclusive results are not listed.

In the experiment the test system is P388 leukemia ip, CD2F1 mice, survival T/C. Nature of the experiment: NCI In Vivo Anticancer Drug Screen. Data for tumor model P388 Leukemia (intraperitoneal) in CD2F1 (CDF1) mice. As to conditions: endpoint: median survival time, higher = longer survival. A digest of the protocol:
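Mice carrying the transplanted tumor received test compound or vehicle. Survival was recorded in each group, and the value is the treated-group measurement divided by that of the vehicle-treated control group.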

Where [1] appears, read: dose: 50.0 mg/kg/injection, schedule: Q01DX009 (ip), vehicle: saline.
[2] abbreviates: dose: 50.0 mg/kg/injection, schedule: Q01DX009 (ip), vehicle: saline with Tween-80.
[3] abbreviates: dose: 100.0 mg/kg/injection, schedule: Q01DX009 (ip), vehicle: saline with Tween-80.
Setting [4] is: dose: 50.0 mg/kg/injection, schedule: Q01DX005 (ip), vehicle: saline with Tween-80.
[5] abbreviates: dose: 100.0 mg/kg/injection, schedule: Q01DX005 (ip), vehicle: saline with Tween-80.
[6] abbreviates: dose: 200.0 mg/kg/injection, schedule: Q01DX005 (ip), vehicle: saline with Tween-80.
[7] abbreviates: dose: 12.5 mg/kg/injection, schedule: Q01DX009 (ip), vehicle: saline.
The mark [8] stands for this setting: dose: 30.0 mg/kg/injection, schedule: Q01DX005 (ip), vehicle: saline.
The mark [9] stands for this setting: dose: 60.0 mg/kg/injection, schedule: Q01DX005 (ip), vehicle: saline.
The mark [10] stands for this setting: dose: 50.0 mg/kg/injection, schedule: Q01DX009 (ip), vehicle: Klucel (hydroxypropylcellulose) (HPC).
Setting [11] is: dose: 100.0 mg/kg/injection, schedule: Q01DX009 (ip), vehicle: Klucel (hydroxypropylcellulose) (HPC).
The mark [12] stands for this setting: dose: 120.0 mg/kg/injection, schedule: Q01DX005 (ip), vehicle: saline.

For `COc1ccc(C2COc3cc4occc4cc3C2=O)c(OC)c1OC` (stereo not given), the T/C reads like this: (dose: 11.25 mg/kg/injection, schedule: Q01DX005 (ip), vehicle: Klucel (hydroxypropylcellulose) (HPC)) 99 % of control; (dose: 22.5 mg/kg/injection, schedule: Q01DX005 (ip), vehicle: Klucel (hydroxypropylcellulose) (HPC)) 97 % of control; (dose: 45.0 mg/kg/injection, schedule: Q01DX005 (ip), vehicle: Klucel (hydroxypropylcellulose) (HPC)) 95 % of control; (dose: 90.0 mg/kg/injection, schedule: Q01DX005 (ip), vehicle: Klucel (hydroxypropylcellulose) (HPC)) 97 % of control; (dose: 180.0 mg/kg/injection, schedule: Q01DX005 (ip), vehicle: Klucel (hydroxypropylcellulose) (HPC)) 99 % of control.

As for `COC(=O)C(=Cc1ccc(OC)cc1)C(=O)OC`, the T/C under setting [1] was 95 % of control; the T/C (dose: 100.0 mg/kg/injection, schedule: Q01DX009 (ip), vehicle: saline) is 95 % of control; the T/C (dose: 200.0 mg/kg/injection, schedule: Q01DX009 (ip), vehicle: saline) is 92 % of control.

For `COc1cc(-c2ccc(O)cc2)c(OC)c(O)c1-c1ccc(O)cc1`, the T/C runs as follows: (dose: 0.15 mg/kg/injection, schedule: Q01DX009 (ip), vehicle: saline) 90 % of control; (dose: 0.3 mg/kg/injection, schedule: Q01DX009 (ip), vehicle: saline) 90 % of control; (dose: 0.6 mg/kg/injection, schedule: Q01DX009 (ip), vehicle: saline) 107 % of control; (dose: 1.2 mg/kg/injection, schedule: Q01DX009 (ip), vehicle: saline) 89 % of control.

On to `CCCCCCC(=O)/C=C/c1ccc(OC(=O)c2ccc(C)cc2)cc1`, for which the T/C was 95 % of control under setting [2]; 93 % of control under setting [3]; 93 % of control (dose: 200.0 mg/kg/injection, schedule: Q01DX009 (ip), vehicle: saline with Tween-80).

Take `O=C(c1ccncc1)c1cc(Cl)c(Cl)cc1Cl`: the T/C is 102 % of control (dose: 50.0 mg/kg/injection, schedule: Q04DX002 (ip), vehicle: saline with Tween-80); 93 % of control (dose: 100.0 mg/kg/injection, schedule: Q04DX002 (ip), vehicle: saline with Tween-80); 111 % of control (dose: 200.0 mg/kg/injection, schedule: Q04DX002 (ip), vehicle: saline with Tween-80).

Consider `C=CCOc1cc2c(cc1C(C)c1ccccc1OC)OCO2` (stereo not given), for which the T/C reads like this: under setting [4], 99 % of control; under setting [5], 97 % of control; under setting [6], 104 % of control.

With `CCC[CH2][Sn]([CH3])([CH3])[CH2]CC[N+](C)(C)C`, the T/C under setting [7] was 95 % of control; the T/C (dose: 25.0 mg/kg/injection, schedule: Q01DX009 (ip), vehicle: saline) was 98 % of control; the T/C under setting [1] is 96 % of control.

Turning to `Oc1cc(CN2CCCC2)c(O)cc1CN1CCCC1`, the T/C (dose: 25.0 mg/kg/injection, schedule: Q01DX009 (ip), vehicle: saline with Tween-80) is 103 % of control and 111 % of control; the T/C under setting [2] was 103 % of control and 111 % of control; the T/C under setting [3] was 110 % of control and 111 % of control.

With `CC(C)CC(=O)C(c1ccccc1)C(CC(C)C)C(=O)C1C(c2ccccc2)CC(=O)C(C(C)C)C1c1ccccc1` (stereo not given), the T/C was 101 % of control under setting [4], 92 % of control under setting [5] and 87 % of control under setting [6].

For the compound `C[N+]1(Cc2ccccc2)C2CCC1C(CCl)C(O)C2` (stereo not given), the T/C reads like this: (dose: 3.12 mg/kg/injection, schedule: Q01DX009 (ip), vehicle: saline) 111 % of control; (dose: 6.25 mg/kg/injection, schedule: Q01DX009 (ip), vehicle: saline) 115 % of control; under setting [7], 101 % of control and 104 % of control.

Turning to `C=C(N)/C=C1/NC(C)=CS1`, the T/C is, setting by setting: (dose: 15.0 mg/kg/injection, schedule: Q01DX005 (ip), vehicle: saline) 96 % of control; under setting [8], 96 % of control; under setting [9], 91 % of control and 94 % of control.

In the case of `NC(=O)C1ONC(=O)C1N` (stereo not given), the T/C (dose: 25.0 mg/kg/injection, schedule: Q01DX009 (ip), vehicle: water) is 106 % of control; the T/C (dose: 50.0 mg/kg/injection, schedule: Q01DX009 (ip), vehicle: water) is 103 % of control; the T/C (dose: 100.0 mg/kg/injection, schedule: Q01DX001 (ip), vehicle: water) is 98 % of control; the T/C (dose: 100.0 mg/kg/injection, schedule: Q01DX009 (ip), vehicle: water) is 104 % of control; the T/C (dose: 100.0 mg/kg/injection, schedule: Q04DX003 (ip), vehicle: water) is 100 % of control; the T/C (dose: 200.0 mg/kg/injection, schedule: Q01DX001 (ip), vehicle: water) is 100 % of control. Moreover, the T/C (dose: 200.0 mg/kg/injection, schedule: Q01DX009 (ip), vehicle: water) is 120 % of control; the T/C (dose: 200.0 mg/kg/injection, schedule: Q04DX003 (ip), vehicle: water) is 101 % of control; the T/C (dose: 400.0 mg/kg/injection, schedule: Q01DX001 (ip), vehicle: water) was 92 % of control; the T/C (dose: 400.0 mg/kg/injection, schedule: Q04DX003 (ip), vehicle: water) was 101 % of control; the T/C (dose: 600.0 mg/kg/injection, schedule: Q01DX001 (ip), vehicle: water) was 96 % of control.

With `Cc1c/c(=N\O)c2c(=O)c([N+](=O)[O-])coc2n1O`, the T/C by setting is: under setting [10], 100 % of control; under setting [11], 100 % of control; (dose: 200.0 mg/kg/injection, schedule: Q01DX009 (ip), vehicle: Klucel (hydroxypropylcellulose) (HPC)) 97 % of control.

As for `CCN(CC)CCCCCCNc1cc(OC)c(Cl)c2cccnc12`, the T/C (dose: 6.25 mg/kg/injection, schedule: Q01DX005 (ip), vehicle: saline) is 102 % of control; the T/C (dose: 12.5 mg/kg/injection, schedule: Q01DX005 (ip), vehicle: saline) is 95 % of control; the T/C (dose: 25.0 mg/kg/injection, schedule: Q01DX005 (ip), vehicle: saline) is 98 % of control; the T/C (dose: 50.0 mg/kg/injection, schedule: Q01DX005 (ip), vehicle: saline) was 115 % of control.

Consider `COc1ccc2ccc(/C=C/[N+](=O)[O-])cc2c1OC`, for which the T/C by setting is: (dose: 3.13 mg/kg/injection, schedule: Q01DX009 (ip), vehicle: other) 109 % of control; (dose: 6.25 mg/kg/injection, schedule: Q01DX009 (ip), vehicle: other) 108 % of control; (dose: 12.5 mg/kg/injection, schedule: Q01DX009 (ip), vehicle: other) 110 % of control; (dose: 25.0 mg/kg/injection, schedule: Q01DX009 (ip), vehicle: other) 106 % of control.

Turning to `Cc1cc[n+](C2=C(Nc3ccc(Cl)cc3C)C(=O)c3ccccc3C2=O)cc1`, the T/C reads like this: (dose: 12.5 mg/kg/injection, schedule: Q01DX005 (ip), vehicle: saline with Tween-80) 109 % of control; (dose: 25.0 mg/kg/injection, schedule: Q01DX005 (ip), vehicle: saline with Tween-80) 109 % of control; under setting [4], 119 % of control; (dose: 60.0 mg/kg/injection, schedule: Q01DX005 (ip), vehicle: saline with Tween-80) 121 % of control.

As for `FC(F)(F)SN1COCN(SC(F)(F)F)C1`, the T/C is 96 % of control under setting [8]; 100 % of control under setting [9]; 99 % of control and 102 % of control under setting [12].

For the compound `COC(COC(=O)N1CCN(C=O)CC1)C1=C(N2CC2)C(=O)C(C)=C(N2CC2)C1=O` (stereo not given), the T/C (dose: 3.13 mg/kg/injection, schedule: Q01DX005 (ip), vehicle: saline) was 177 % of control.

`Cc1ccc2c(c1)sc1nnc(S(C)(=O)=O)n12`: the T/C runs as follows: (dose: 12.5 mg/kg/injection, schedule: Q01DX009 (ip), vehicle: Klucel (hydroxypropylcellulose) (HPC)) 118 % of control; (dose: 25.0 mg/kg/injection, schedule: Q01DX009 (ip), vehicle: Klucel (hydroxypropylcellulose) (HPC)) 110 % of control; under setting [10], 102 % of control and 118 % of control; under setting [11], 111 % of control.

As for `C#CC1OCCCO1`, the T/C was 100 % of control under setting [9] and 106 % of control under setting [12].

For the compound `O=S1(=O)CC2(N3CCOCC3)CCCCC21` (stereo not given), the T/C (dose: 100.0 mg/kg/injection, schedule: Q04DX003 (ip), vehicle: saline with Tween-80) was 95 % of control; the T/C (dose: 200.0 mg/kg/injection, schedule: Q04DX003 (ip), vehicle: saline with Tween-80) is 100 % of control; the T/C (dose: 400.0 mg/kg/injection, schedule: Q04DX003 (ip), vehicle: saline with Tween-80) was 95 % of control.
